In PubChem BioAssay AID2060894 (Molecular Pharmacology Branch, DTP, NCI, 2025):
One block for each compound: values may come before it.

Tested on: K12877-001-R-J1-PDC complex spheroid viability
Experiment: Anticancer human tumor K12877-001-R-J1-PDC patient-derived lung adenocarcinoma cell line growth inhibition [RAS]
Settings: for IC50: curve of first compound; for viability, T/C: stronger effect = lower value
Procedure, shortened: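 Agents were tested in combination matrices in half-log decrements from a top concentration at or near clinical Cmax (10 microM if undetermined). Targets were multi-cell spheroids of tumour lines plus HUVEC and MSC stromal cells.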

[1] = second compound 0.00316 µM, first compound 0.00316 µM
[2] = second compound 0.00316 µM, first compound 0.01 µM
[3] = second compound 0.00316 µM, first compound 0.0316 µM
[4] = second compound 0.00316 µM, first compound 0.1 µM
[5] = second compound 0.00316 µM, first compound 0.316 µM
[6] = second compound 0.00316 µM, first compound 1 µM
[7] = second compound 0.01 µM, first compound 0.00316 µM
[8] = second compound 0.01 µM, first compound 0.01 µM
[9] = second compound 0.01 µM, first compound 0.0316 µM
[10] = second compound 0.01 µM, first compound 0.1 µM
[11] = second compound 0.01 µM, first compound 0.316 µM
[12] = second compound 0.01 µM, first compound 1 µM
[13] = second compound 0.0316 µM, first compound 0.00316 µM
[14] = second compound 0.0316 µM, first compound 0.01 µM
[15] = second compound 0.0316 µM, first compound 0.0316 µM
[16] = second compound 0.0316 µM, first compound 0.1 µM
[17] = second compound 0.0316 µM, first compound 0.316 µM
[18] = second compound 0.0316 µM, first compound 1 µM
[19] = second compound 0.1 µM, first compound 0.00316 µM
[20] = second compound 0.1 µM, first compound 0.01 µM
[21] = second compound 0.1 µM, first compound 0.0316 µM
[22] = second compound 0.1 µM, first compound 0.1 µM
[23] = second compound 0.1 µM, first compound 0.316 µM
[24] = second compound 0.1 µM, first compound 1 µM
[25] = second compound 0.316 µM, first compound 0.00316 µM
[26] = second compound 0.316 µM, first compound 0.01 µM
[27] = second compound 0.316 µM, first compound 0.0316 µM
[28] = second compound 0.316 µM, first compound 0.1 µM
[29] = second compound 0.316 µM, first compound 0.316 µM
[30] = second compound 0.316 µM, first compound 1 µM
[31] = second compound 1 µM, first compound 0.00316 µM
[32] = second compound 1 µM, first compound 0.01 µM
[33] = second compound 1 µM, first compound 0.0316 µM
[34] = second compound 1 µM, first compound 0.1 µM
[35] = second compound 1 µM, first compound 0.316 µM
[36] = second compound 1 µM, first compound 1 µM
[37] = second compound 0.00316 µM, first compound 3.16 µM
[38] = second compound 0.00316 µM, first compound 10 µM
[39] = second compound 0.01 µM, first compound 3.16 µM
[40] = second compound 0.01 µM, first compound 10 µM
[41] = second compound 0.0316 µM, first compound 3.16 µM
[42] = second compound 0.0316 µM, first compound 10 µM
[43] = second compound 0.1 µM, first compound 3.16 µM
[44] = second compound 0.1 µM, first compound 10 µM
[45] = second compound 0.316 µM, first compound 3.16 µM
[46] = second compound 0.316 µM, first compound 10 µM
[47] = second compound 1 µM, first compound 3.16 µM
[48] = second compound 1 µM, first compound 10 µM
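Further: spheroids exposed to agents for one week before readout.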
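Wherever viability, T/C is given: tumour cells co-cultured with HUVEC and mesenchymal stem cells in spheroids.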

SMILES: CC(C)NCC(C(=O)N1CCN(c2ncnc3c2C(C)CC3O)CC1)c1ccc(Cl)cc1 (stereo not given) + C=CC(=O)N1CCN(c2nc(OCC3CCCN3C)nc3c(F)c(-c4nc(N)cc(C)c4C(F)(F)F)c(Cl)cc23)C(C)C1
IC50 (second compound 0.00316 µM): 2240 nM
IC50 (second compound 0.01 µM): 1560 nM
IC50 (second compound 0.0316 µM): 1400 nM
IC50 (second compound 0.1 µM): 1420 nM
IC50 (second compound 0.316 µM): 934 nM
IC50 (second compound 1 µM): 1540 nM
viability, T/C [3]: 87.9%
viability, T/C [4]: 86.1%
viability, T/C [5]: 74.5%
viability, T/C [6]: 78.4%
viability, T/C [37]: 38%
viability, T/C [38]: 22%
viability, T/C [9]: 82.8%
viability, T/C [10]: 89.2%
viability, T/C [11]: 68.8%
viability, T/C [12]: 65.8%
viability, T/C [39]: 30.2%
viability, T/C [40]: 18%
viability, T/C [15]: 85.5%
viability, T/C [16]: 90.6%
viability, T/C [17]: 73.3%
viability, T/C [18]: 63.3%
viability, T/C [41]: 23.7%
viability, T/C [42]: 17.6%
viability, T/C [21]: 84%
viability, T/C [22]: 71.5%
viability, T/C [23]: 82.4%
viability, T/C [24]: 63.2%
viability, T/C [43]: 20.2%
viability, T/C [44]: 16.7%
viability, T/C [27]: 79.9%
viability, T/C [28]: 79.9%
viability, T/C [29]: 68.2%
viability, T/C [30]: 51%
viability, T/C [45]: 23.5%
viability, T/C [46]: 19.5%
viability, T/C [33]: 87.8%
viability, T/C [34]: 75.7%
viability, T/C [35]: 84.4%
viability, T/C [36]: 58.6%
viability, T/C [47]: 33.9%
viability, T/C [48]: 20.9%

SMILES: CC(Nc1ccc2c(c1)OCCn1cc(N3C(=O)OCC3C(F)F)nc1-2)C(N)=O (stereo not given) + C=CC(=O)N1CCN(c2nc(OCC3CCCN3C)nc3c(F)c(-c4nc(N)cc(C)c4C(F)(F)F)c(Cl)cc23)C(C)C1
IC50 (second compound 0.00316 µM): 1220 nM
IC50 (second compound 0.01 µM): 1920 nM
IC50 (second compound 0.0316 µM): 2120 nM
IC50 (second compound 0.1 µM): 1860 nM
IC50 (second compound 0.316 µM): 1160 nM
IC50 (second compound 1 µM): 1430 nM
viability, T/C [3]: 92%
viability, T/C [4]: 72.8%
viability, T/C [5]: 57.6%
viability, T/C [6]: 61.6%
viability, T/C [37]: 44.9%
viability, T/C [38]: 21.3%
viability, T/C [9]: 86.3%
viability, T/C [10]: 69.6%
viability, T/C [11]: 57.9%
viability, T/C [12]: 64%
viability, T/C [39]: 48.7%
viability, T/C [40]: 18.7%
viability, T/C [15]: 74.3%
viability, T/C [16]: 78.4%
viability, T/C [17]: 57.6%
viability, T/C [18]: 63.1%
viability, T/C [41]: 46.2%
viability, T/C [42]: 16.8%
viability, T/C [21]: 76.7%
viability, T/C [22]: 64.7%
viability, T/C [23]: 65%
viability, T/C [24]: 63.2%
viability, T/C [43]: 40.4%
viability, T/C [44]: 15%
viability, T/C [27]: 75.9%
viability, T/C [28]: 79.1%
viability, T/C [29]: 62.3%
viability, T/C [30]: 50.9%
viability, T/C [45]: 37.6%
viability, T/C [46]: 19.1%
viability, T/C [33]: 77%
viability, T/C [34]: 70.9%
viability, T/C [35]: 62.2%
viability, T/C [36]: 53.1%
viability, T/C [47]: 43.5%
viability, T/C [48]: 19.6%

Second part, led by results:

IC50 (second compound 0.00316 µM): > 1000 nM
IC50 (second compound 0.01 µM): > 1000 nM
IC50 (second compound 0.0316 µM): > 1000 nM
IC50 (second compound 0.1 µM): > 1000 nM
IC50 (second compound 0.316 µM): > 1000 nM
IC50 (second compound 1 µM): > 1000 nM
SMILES: C=CC(=O)Nc1cc(Nc2nccc(-c3cn(C)c4ccccc34)n2)c(OC)cc1N(C)CCN(C)C + C=CC(=O)N1CCN(c2nc(OCC3CCCN3C)nc3c(F)c(-c4nc(N)cc(C)c4C(F)(F)F)c(Cl)cc23)C(C)C1
viability, T/C [1]: 106%
viability, T/C [2]: 98.8%
viability, T/C [3]: 98.7%
viability, T/C [4]: 100%
viability, T/C [5]: 101%
viability, T/C [6]: 83.8%
viability, T/C [7]: 104%
viability, T/C [8]: 95%
viability, T/C [9]: 103%
viability, T/C [10]: 96.2%
viability, T/C [11]: 92.7%
viability, T/C [12]: 82.6%
viability, T/C [13]: 95.8%
viability, T/C [14]: 93.1%
viability, T/C [15]: 88.3%
viability, T/C [16]: 90.7%
viability, T/C [17]: 79.6%
viability, T/C [18]: 80.1%
viability, T/C [19]: 93.6%
viability, T/C [20]: 88.1%
viability, T/C [21]: 88.9%
viability, T/C [22]: 88.1%
viability, T/C [23]: 76.2%
viability, T/C [24]: 70.8%
viability, T/C [25]: 90.8%
viability, T/C [26]: 94.1%
viability, T/C [27]: 82.3%
viability, T/C [28]: 89.1%
viability, T/C [29]: 79.8%
viability, T/C [30]: 72.6%
viability, T/C [31]: 86.5%
viability, T/C [32]: 91.8%
viability, T/C [33]: 83.6%
viability, T/C [34]: 76.9%
viability, T/C [35]: 76.6%
viability, T/C [36]: 73.5%

IC50 (second compound 0.00316 µM): 20.1 nM
IC50 (second compound 0.01 µM): 20.4 nM
IC50 (second compound 0.0316 µM): 17.4 nM
IC50 (second compound 0.1 µM): 15.4 nM
IC50 (second compound 0.316 µM): 14.2 nM
IC50 (second compound 1 µM): 16.4 nM
SMILES: CC(C)n1nc(-c2ccc3oc(N)nc3c2)c2c(N)ncnc21 + C=CC(=O)N1CCN(c2nc(OCC3CCCN3C)nc3c(F)c(-c4nc(N)cc(C)c4C(F)(F)F)c(Cl)cc23)C(C)C1
viability, T/C (second compound 0.00316 µM, first compound 0.000316 µM): 97.8%
viability, T/C (second compound 0.00316 µM, first compound 0.001 µM): 98.3%
viability, T/C [1]: 90.6%
viability, T/C [2]: 73.3%
viability, T/C [3]: 34.9%
viability, T/C [4]: 17.7%
viability, T/C (second compound 0.01 µM, first compound 0.000316 µM): 88.9%
viability, T/C (second compound 0.01 µM, first compound 0.001 µM): 89.2%
viability, T/C [7]: 81.8%
viability, T/C [8]: 79.3%
viability, T/C [9]: 32.1%
viability, T/C [10]: 15.2%
viability, T/C (second compound 0.0316 µM, first compound 0.000316 µM): 83.8%
viability, T/C (second compound 0.0316 µM, first compound 0.001 µM): 74.4%
viability, T/C [13]: 78.4%
viability, T/C [14]: 71.4%
viability, T/C [15]: 27.1%
viability, T/C [16]: 14.4%
viability, T/C (second compound 0.1 µM, first compound 0.000316 µM): 75.6%
viability, T/C (second compound 0.1 µM, first compound 0.001 µM): 78.5%
viability, T/C [19]: 73.9%
viability, T/C [20]: 65.5%
viability, T/C [21]: 24.7%
viability, T/C [22]: 14.5%
viability, T/C (second compound 0.316 µM, first compound 0.000316 µM): 82.9%
viability, T/C (second compound 0.316 µM, first compound 0.001 µM): 70%
viability, T/C [25]: 70.9%
viability, T/C [26]: 61.6%
viability, T/C [27]: 25.5%
viability, T/C [28]: 14.6%
viability, T/C (second compound 1 µM, first compound 0.000316 µM): 72.6%
viability, T/C (second compound 1 µM, first compound 0.001 µM): 77.8%
viability, T/C [31]: 84.1%
viability, T/C [32]: 68.3%
viability, T/C [33]: 25.2%
viability, T/C [34]: 14.4%

IC50 (second compound 0.00316 µM): > 1000 nM
IC50 (second compound 0.01 µM): > 1000 nM
IC50 (second compound 0.0316 µM): > 1000 nM
IC50 (second compound 0.1 µM): > 1000 nM
IC50 (second compound 0.316 µM): > 1000 nM
IC50 (second compound 1 µM): > 1000 nM
SMILES: O=C(c1ccc(F)c(F)c1Nc1ccc(I)cc1F)N1CC(O)([C@@H]2CCCCN2)C1 + C=CC(=O)N1CCN(c2nc(OCC3CCCN3C)nc3c(F)c(-c4nc(N)cc(C)c4C(F)(F)F)c(Cl)cc23)C(C)C1
viability, T/C [1]: 104%
viability, T/C [2]: 103%
viability, T/C [3]: 89.5%
viability, T/C [4]: 91.7%
viability, T/C [5]: 72.2%
viability, T/C [6]: 54.5%
viability, T/C [7]: 94.5%
viability, T/C [8]: 95%
viability, T/C [9]: 78.9%
viability, T/C [10]: 90.7%
viability, T/C [11]: 68.1%
viability, T/C [12]: 58.3%
viability, T/C [13]: 93%
viability, T/C [14]: 85.2%
viability, T/C [15]: 77.5%
viability, T/C [16]: 87.6%
viability, T/C [17]: 71.1%
viability, T/C [18]: 66.4%
viability, T/C [19]: 85.2%
viability, T/C [20]: 89.3%
viability, T/C [21]: 83.7%
viability, T/C [22]: 82.2%
viability, T/C [23]: 72.4%
viability, T/C [24]: 55.4%
viability, T/C [25]: 85.7%
viability, T/C [26]: 83.3%
viability, T/C [27]: 84.7%
viability, T/C [28]: 89.4%
viability, T/C [29]: 72.4%
viability, T/C [30]: 59%
viability, T/C [31]: 79.5%
viability, T/C [32]: 79.3%
viability, T/C [33]: 78.1%
viability, T/C [34]: 103%
viability, T/C [35]: 75.3%
viability, T/C [36]: 57.2%
